Results: patent publication US6525001B1, “Substituted pyrimidine and pyridine herbicides” (Mid-American Commercialization Corporation, priority 1997, dated 2003)

Legend:
Assay type in all cases: in vivo
Parameters in all cases: key: 0 is no effect; 10 is complete control
[1] = tested on: rice (Oryza sativa); experiment: Test B flood test
Outline: (§1)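 Read-out is a visual response score from 0 (no effect) to 10 (complete control), assigned by comparison with untreated controls. Treatment was applied at the 2-leaf stage, and plants stayed in the greenhouse for twelve to sixteen days before scoring.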

[2] = tested on: duck salad (Heteranthera limosa); experiment: Test B flood test
Outline: as §1

[3] = tested on: smallflower flatsedge (Cyperus difformis); experiment: Test B flood test
Outline: as §1

[4] = tested on: bamyardgrass (Echinochloa crus-galli); experiment: Test B flood test
Outline: as §1

[5] = tested on: blackgrass (Alopecurus myosuroides); experiment: Test B pre-/postemergence
Outline: (§2)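 Compounds in a surfactant-containing, non-phytotoxic solvent blend are applied to freshly planted seed (preemergence) and, concurrently, to seedlings of 2 to 18 cm at 1–4 leaves (postemergence). Plants stay in the greenhouse twelve to sixteen days and are then scored visually from 0 (no effect) to 10 (complete control).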

[6] = tested on: broadleaf signalgrass (Brachiaria decumbens); experiment: Test B pre-/postemergence
Outline: as §2

[7] = tested on: wheat (Triticum aestivum); experiment: Test B pre-/postemergence
Outline: as §2

[8] = tested on: bedstraw (Galium aparine); experiment: Test B pre-/postemergence
Outline: as §2

[9] = tested on: corn (Zea mays); experiment: Test B pre-/postemergence
Outline: as §2

[10] = tested on: momingglory (Ipomoea hederacea); experiment: Test B pre-/postemergence
Outline: as §2

[11] = tested on: velvetleaf (Abutilon theophrasti); experiment: Test B pre-/postemergence
Outline: as §2

[12] = tested on: giant foxtail (Setaria faberii); experiment: Test B pre-/postemergence
Outline: as §2

[13] = tested on: crabgrass (Digitaria sanguinalis); experiment: Test B pre-/postemergence
Outline: as §2

[14] = tested on: cocklebur (Xanthium strumarium); experiment: Test B pre-/postemergence
Outline: as §2

[15] = tested on: soybean (Glycine max); experiment: Test B pre-/postemergence
Outline: as §2

[16] = tested on: sugar beet (Beta vulgaris); experiment: Test B pre-/postemergence
Outline: as §2

[17] = tested on: pigweed (Amaranthus retroflexus); experiment: Test B pre-/postemergence
Outline: as §2

[18] = tested on: rape (Brassica napus); experiment: Test B pre-/postemergence
Outline: as §2

[19] = tested on: purple nutsedge (Cyperus rotundus); experiment: Test B pre-/postemergence
Outline: as §2

[20] = tested on: wild oat (Avena fatua); experiment: Test B pre-/postemergence
Outline: as §2

[21] = Rate 62 g/ha, Postemergence (flood test)
[22] = Rate 125 g/ha, Postemergence section (flood test species)
[23] = Rate 250 g/ha, Postemergence (flood test species)
[24] = Preemergence, Rate 62 g/ha, scale of 0 to 10

## COc1cnc(-n2ccc(C(F)(F)F)n2)nc1C(=O)c1cccc(C(F)(F)F)c1 [Compound 60]
[1]; [21]
  Rice plant response rating: 0
[1]; [22]
  Rice plant response rating: 0
[1]; [23]
  Plant response rating, Rice: 1
[2]; [21]
  Ducksalad plant response rating: 1
[2]; [22]
  Ducksalad plant response rating: 2
[2]; [23]
  Plant response rating, Ducksalad: 2
[3]; [21]
  S. Flatsedge plant response rating: 4
[3]; [22]
  S. Flatsedge plant response rating: 5
[3]; [23]
  Plant response rating, S. Flatsedge: 6
[4]; [21]
  Barnyardgrass plant response rating: 1
[4]; [22]
  Barnyardgrass plant response rating: 1
[4]; [23]
  Plant response rating, Barnyardgrass: 2
[5]; [24]
  Plant response rating, Blackgrass: 1
[5]; Rate 62 g/ha, Postemergence
  Blackgrass plant response rating: 1
[5]; Rate 125 g/ha, Postemergence
  Blackgrass plant response rating: 1
[5]; Rate 125 g/ha, Preemergence
  Plant response rating, Blackgrass: 1
[5]; Rate 250 g/ha, Postemergence
  Plant response rating, Blackgrass: 2
[5]; Rate 250 g/ha, Preemergence
  Plant response rating, Blackgrass: 2
[6]; Rate 62 g/ha, Postemergence
  B. signalgrass plant response rating: 2
[6]; Rate 62 g/ha, Preemergence
  B. signalgrass plant response rating: 2
[6]; Rate 125 g/ha, Postemergence
  B. signalgrass plant response rating: 2
[6]; Rate 125 g/ha, Preemergence
  Plant response rating, B. signalgrass: 3
[6]; Rate 250 g/ha, Postemergence
  Plant response rating, B. signalgrass: 3
[6]; Rate 250 g/ha, Preemergence
  Plant response rating, B. signalgrass: 3
[7]; [24]
  Plant response rating, Wheat: 0
[7]; Rate 62 g/ha, Postemergence
  Wheat plant response rating: 2
[7]; Rate 125 g/ha, Postemergence
  Wheat plant response rating: 3
[7]; Rate 125 g/ha, Preemergence
  Plant response rating, Wheat: 0
[7]; Rate 250 g/ha, Postemergence
  Plant response rating, Wheat: 3
[7]; Rate 250 g/ha, Preemergence
  Plant response rating, Wheat: 0
[8]; [24]
  Plant response rating, Bedstraw: 0
[8]; Rate 62 g/ha, Postemergence
  Bedstraw plant response rating: 2
[8]; Rate 125 g/ha, Postemergence
  Bedstraw plant response rating: 3
[8]; Rate 125 g/ha, Preemergence
  Plant response rating, Bedstraw: 0
[8]; Rate 250 g/ha, Postemergence
  Plant response rating, Bedstraw: 3
[8]; Rate 250 g/ha, Preemergence
  Plant response rating, Bedstraw: 1
[9]; [24]
  Plant response rating, Corn: 0
[9]; Rate 62 g/ha, Postemergence
  Corn plant response rating: 2
[9]; Rate 125 g/ha, Postemergence
  Corn plant response rating: 2
[9]; Rate 125 g/ha, Preemergence
  Plant response rating, Corn: 0
[9]; Rate 250 g/ha, Postemergence
  Plant response rating, Corn: 3
[9]; Rate 250 g/ha, Preemergence
  Plant response rating, Corn: 0
[10]; [24]
  Plant response rating, Morningglory: 1
[10]; Rate 62 g/ha, Postemergence
  Morningglory plant response rating: 2
[10]; Rate 125 g/ha, Postemergence
  Morningglory plant response rating: 4
[10]; Rate 125 g/ha, Preemergence
  Plant response rating, Morningglory: 2
[10]; Rate 250 g/ha, Postemergence
  Plant response rating, Morningglory: 9
[10]; Rate 250 g/ha, Preemergence
  Plant response rating, Morningglory: 5
[11]; [24]
  Plant response rating, Velvetleaf: 1
[11]; Rate 62 g/ha, Postemergence
  Velvetleaf plant response rating: 2
[11]; Rate 125 g/ha, Postemergence
  Velvetleaf plant response rating: 2
[11]; Rate 125 g/ha, Preemergence
  Plant response rating, Velvetleaf: 1
[11]; Rate 250 g/ha, Postemergence
  Plant response rating, Velvetleaf: 2
[11]; Rate 250 g/ha, Preemergence
  Plant response rating, Velvetleaf: 1
[12]; [24]
  Plant response rating, Giant foxtail: 2
[12]; Rate 62 g/ha, Postemergence
  Giant foxtail plant response rating: 2
[12]; Rate 125 g/ha, Postemergence
  Giant foxtail plant response rating: 2
[12]; Rate 125 g/ha, Preemergence
  Plant response rating, Giant foxtail: 2
[12]; Rate 250 g/ha, Postemergence
  Plant response rating, Giant foxtail: 2
[12]; Rate 250 g/ha, Preemergence
  Plant response rating, Giant foxtail: 5
[13]; [24]
  Plant response rating, Crabgrass: 0
[13]; Rate 62 g/ha, Postemergence
  Crabgrass plant response rating: 2
[13]; Rate 125 g/ha, Postemergence
  Crabgrass plant response rating: 3
[13]; Rate 125 g/ha, Preemergence
  Plant response rating, Crabgrass: 2
[13]; Rate 250 g/ha, Postemergence
  Plant response rating, Crabgrass: 4
[13]; Rate 250 g/ha, Preemergence
  Plant response rating, Crabgrass: 6
[14]; [24]
  Plant response rating, Cocklebur: 0
[14]; Rate 62 g/ha, Postemergence
  Cocklebur plant response rating: 3
[14]; Rate 125 g/ha, Postemergence
  Cocklebur plant response rating: 3
[14]; Rate 125 g/ha, Preemergence
  Plant response rating, Cocklebur: 0
[14]; Rate 250 g/ha, Postemergence
  Plant response rating, Cocklebur: 4
[14]; Rate 250 g/ha, Preemergence
  Plant response rating, Cocklebur: 0
[15]; [24]
  Plant response rating, Soybean: 0
[15]; Rate 62 g/ha, Postemergence
  Soybean plant response rating: 2
[15]; Rate 125 g/ha, Postemergence
  Soybean plant response rating: 2
[15]; Rate 125 g/ha, Preemergence
  Plant response rating, Soybean: 0
[15]; Rate 250 g/ha, Postemergence
  Plant response rating, Soybean: 2
[15]; Rate 250 g/ha, Preemergence
  Plant response rating, Soybean: 0
[16]; [24]
  Plant response rating, Sugarbeets: 6
[16]; Rate 62 g/ha, Postemergence
  Sugarbeets plant response rating: 8
[16]; Rate 125 g/ha, Postemergence
  Sugarbeets plant response rating: 8
[16]; Rate 125 g/ha, Preemergence
  Plant response rating, Sugarbeets: 8
[16]; Rate 250 g/ha, Postemergence
  Plant response rating, Sugarbeets: 9
[16]; Rate 250 g/ha, Preemergence
  Plant response rating, Sugarbeets: 9
[17]; [24]
  Plant response rating, Redroot pigweed: 6
[17]; Rate 62 g/ha, Postemergence
  Redroot pigweed plant response rating: 5
[17]; Rate 125 g/ha, Postemergence
  Redroot pigweed plant response rating: 7
[17]; Rate 125 g/ha, Preemergence
  Plant response rating, Redroot pigweed: 9
[17]; Rate 250 g/ha, Postemergence
  Plant response rating, Redroot pigweed: 7
[17]; Rate 250 g/ha, Preemergence
  Plant response rating, Redroot pigweed: 10
[18]; [24]
  Plant response rating, Rape: 0
[18]; Rate 62 g/ha, Postemergence
  Rape plant response rating: 3
[18]; Rate 125 g/ha, Postemergence
  Rape plant response rating: 3
[18]; Rate 125 g/ha, Preemergence
  Plant response rating, Rape: 0
[18]; Rate 250 g/ha, Postemergence
  Plant response rating, Rape: 4
[18]; Rate 250 g/ha, Preemergence
  Plant response rating, Rape: 1
[19]; [24]
  Plant response rating, Nutsedge: 0
[19]; Rate 62 g/ha, Postemergence
  Nutsedge plant response rating: 0
[19]; Rate 125 g/ha, Postemergence
  Nutsedge plant response rating: 0
[19]; Rate 125 g/ha, Preemergence
  Plant response rating, Nutsedge: 0
[19]; Rate 250 g/ha, Postemergence
  Plant response rating, Nutsedge: 0
[20]; [24]
  Plant response rating, Wild oats: 0
[20]; Rate 62 g/ha, Postemergence
  Wild oats plant response rating: 2
[20]; Rate 125 g/ha, Postemergence
  Wild oats plant response rating: 2
[20]; Rate 125 g/ha, Preemergence
  Plant response rating, Wild oats: 0
[20]; Rate 250 g/ha, Postemergence
  Plant response rating, Wild oats: 2
[20]; Rate 250 g/ha, Preemergence
  Plant response rating, Wild oats: 0
